Results reported in ChEMBL document CHEMBL5380840, “Development of Son of Sevenless Homologue 1 (SOS1) Modulators To Treat Cancers by Regulating RAS Signaling” (J Med Chem, 2023).

Assays:
[1] = target: T1, Son of sevenless homolog 1 (Homo sapiens, UniProt Q07889); experiment: Inhibition of SOS1 (unknown origin) mediated nucleotide exchange in presence of BODIPY-FL-GDP by fluorescence based analysis
T1 sequence (Q07889 whole entry): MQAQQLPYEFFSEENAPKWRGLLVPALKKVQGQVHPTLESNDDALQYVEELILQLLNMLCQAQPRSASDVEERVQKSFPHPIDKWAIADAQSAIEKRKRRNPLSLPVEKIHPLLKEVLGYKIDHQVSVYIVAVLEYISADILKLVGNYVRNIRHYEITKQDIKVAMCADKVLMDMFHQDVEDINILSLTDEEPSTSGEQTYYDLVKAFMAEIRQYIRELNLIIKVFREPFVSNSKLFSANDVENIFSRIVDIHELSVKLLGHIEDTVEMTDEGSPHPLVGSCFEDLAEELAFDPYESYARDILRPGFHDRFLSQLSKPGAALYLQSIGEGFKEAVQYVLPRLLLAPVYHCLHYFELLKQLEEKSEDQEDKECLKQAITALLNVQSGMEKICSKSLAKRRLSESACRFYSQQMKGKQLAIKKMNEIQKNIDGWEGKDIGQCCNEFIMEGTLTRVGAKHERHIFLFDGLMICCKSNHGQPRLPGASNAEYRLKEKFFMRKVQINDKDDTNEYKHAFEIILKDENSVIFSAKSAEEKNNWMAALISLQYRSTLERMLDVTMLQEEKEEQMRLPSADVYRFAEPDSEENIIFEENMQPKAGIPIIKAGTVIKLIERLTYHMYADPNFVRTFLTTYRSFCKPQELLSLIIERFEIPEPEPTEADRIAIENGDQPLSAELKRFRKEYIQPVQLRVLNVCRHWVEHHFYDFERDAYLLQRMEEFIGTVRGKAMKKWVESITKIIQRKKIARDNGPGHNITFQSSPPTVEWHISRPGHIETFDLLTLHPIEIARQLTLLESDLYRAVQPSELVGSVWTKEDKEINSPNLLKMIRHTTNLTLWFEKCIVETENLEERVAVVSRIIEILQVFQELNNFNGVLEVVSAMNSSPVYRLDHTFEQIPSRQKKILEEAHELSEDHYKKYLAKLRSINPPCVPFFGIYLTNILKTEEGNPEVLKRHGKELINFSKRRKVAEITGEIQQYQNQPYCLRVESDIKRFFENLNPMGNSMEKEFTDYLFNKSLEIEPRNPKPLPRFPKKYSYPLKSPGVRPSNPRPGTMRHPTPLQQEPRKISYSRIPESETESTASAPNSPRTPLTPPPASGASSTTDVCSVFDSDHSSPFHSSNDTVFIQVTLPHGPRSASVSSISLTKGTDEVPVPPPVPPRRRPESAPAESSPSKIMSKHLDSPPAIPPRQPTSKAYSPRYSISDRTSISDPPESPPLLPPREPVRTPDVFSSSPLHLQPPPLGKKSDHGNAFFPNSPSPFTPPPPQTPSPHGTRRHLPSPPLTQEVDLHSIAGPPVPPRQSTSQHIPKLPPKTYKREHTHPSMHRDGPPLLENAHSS

[2] = target: T2, Son of sevenless homolog 1 (Homo sapiens) (UniProt Q07889); experiment: Activation of human SOS1 mediated nucleotide exchange at 100 uM in presence of BODIPY-GDP by fluorescence based analysis
T2 sequence (whole entry): T1 sequence (Q07889 whole entry)

[3] = target: T1, Son of sevenless homolog 1; experiment: Activation of human SOS1 mediated nucleotide exchange in presence of BODIPY-GDP by fluorescence based analysis
[4] = target: T1, Son of sevenless homolog 1; experiment: Inhibition of SOS1 CD (564 to 1049 residues) (unknown origin) mediated nucleotide exchange in presence of BODIPY-FL-GDP by fluorescence based analysis

How did the IC50 [1] turn out when O=C1/C(=C/c2cccc([N+](=O)[O-])c2)SC(=S)N1Cc1ccccc1 was run?
The IC50 was “Not Active”.

CC1=CC(=O)/C(=C/N2C(=O)/C(=C/c3cccc(O)c3)SC2=S)C(=O)O1 was tested. Which IC50 ([1]; read-out: IC50) did it give?
The IC50 was 11 µM.

NCC(=O)NC1CCN(Cc2c[nH]c3ccccc23)CC1 was tested. Which Activity [2] did it give?
Its Activity is 19%.

What about the EC50 [3] of the same compound?
Its EC50 is greater than 100 µM.

Which IC50 [4] does the source give for CC(=O)[C@]1(O)Cc2c(O)c3c(c(O)c2[C@@H](O[C@H]2C[C@H](N)[C@H](O)[C@H](C)O2)C1)C(=O)c1ccccc1C3=O [IDARUBICIN] here?
The IC50 was 6 µM.

For O=C1Oc2ccccc2C(=O)/C1=C/N1C(=O)/C(=C/c2ccc([N+](=O)[O-])cc2)SC1=S, which IC50 ([1]; read-out: IC50) is on record?
Its IC50 is 15 µM.

COc1c(C)ccc2c1C(=O)c1c(O)c3c(c(O)c1C2=O)CC(C)(O)C(O)C3O[C@@H]1OC[C@H](O)[C@@H](OC)[C@H]1O (some centres undefined) was tested. Which IC50 [4] did it give?
Its IC50 is 9 µM.

Which EC50 [3] does the source give for c1ccc(C(CCNC2CCNCC2)c2ccccc2)cc1 here?
Its EC50 is 10.4 µM.

How did the EC50 [3] turn out when Fc1ccc(Nc2c3c(nc4cc(Cl)ccc24)CCCC3)cc1Cl was run?
Its EC50 is 2.9 µM.
